Reference: US20260091027A1, “STILBENE DERIVATIVES AS WELL AS PREPARATION METHOD THEREFOR AND USE THEREOF” (THEDERMA SHANGHAI CO., LTD., priority 2022, published 2026)

Columns and labels:
[1] = Illumination stability experiment (HPLC content); assay type: physicochemical; details: visible light 5000 ± 500 lx, ultraviolet light 250 μW/cm^2
Protocol: Test Example 2. Illumination Stability Experiment
• Stability chamber, model: ICH-110L, Memmert, USA; • High performance liquid chromatograph (HPLC), model: 1260, Agilent.
• Detection wavelength: 220 nM, 254 nM • Chromatographic column: Agilent ZORBAX SB-C8 4.6×250 mm, 5 μm • Mobile phase A: water • Mobile phase B: acetonitrile • Flow rate: 1.0 mL/min • Column temperature: 35° C. • Injection volume: 10 μL
• 1. A test compound was weighed out and placed into the stability chamber; • 2. a light source was turned on, with visible light of 5000±500 lx and ultraviolet light of 250 μW/cm^2; • 3. sampling was performed at 0 h, 8 h, 24 h, and 72 h, and the sample was dissolved in an aqueous acetonitrile solution with a volume fraction of 50%; • 4. HPLC was used for detection, and the content was determined by using the area normalization method.

AHR protein = biological target: T1, AHR protein (Homo sapiens, UniProt P35869); experiment: Luciferase reporter gene assay (AHR agonistic activity); assay type: cell-based; details: HepG2-Lucia AHR cells, 24 h incubation; read-out: Luciferase-labeled human hepatoma cells (HepG2-Lucia) AHR agonist EC50
T1 construct: Human hepatoma cells HepG2-Lucia expressing AHR and luciferase; host or cells: HepG2-Lucia AHR (human hepatoma)
T1 sequence (P35869 11-848): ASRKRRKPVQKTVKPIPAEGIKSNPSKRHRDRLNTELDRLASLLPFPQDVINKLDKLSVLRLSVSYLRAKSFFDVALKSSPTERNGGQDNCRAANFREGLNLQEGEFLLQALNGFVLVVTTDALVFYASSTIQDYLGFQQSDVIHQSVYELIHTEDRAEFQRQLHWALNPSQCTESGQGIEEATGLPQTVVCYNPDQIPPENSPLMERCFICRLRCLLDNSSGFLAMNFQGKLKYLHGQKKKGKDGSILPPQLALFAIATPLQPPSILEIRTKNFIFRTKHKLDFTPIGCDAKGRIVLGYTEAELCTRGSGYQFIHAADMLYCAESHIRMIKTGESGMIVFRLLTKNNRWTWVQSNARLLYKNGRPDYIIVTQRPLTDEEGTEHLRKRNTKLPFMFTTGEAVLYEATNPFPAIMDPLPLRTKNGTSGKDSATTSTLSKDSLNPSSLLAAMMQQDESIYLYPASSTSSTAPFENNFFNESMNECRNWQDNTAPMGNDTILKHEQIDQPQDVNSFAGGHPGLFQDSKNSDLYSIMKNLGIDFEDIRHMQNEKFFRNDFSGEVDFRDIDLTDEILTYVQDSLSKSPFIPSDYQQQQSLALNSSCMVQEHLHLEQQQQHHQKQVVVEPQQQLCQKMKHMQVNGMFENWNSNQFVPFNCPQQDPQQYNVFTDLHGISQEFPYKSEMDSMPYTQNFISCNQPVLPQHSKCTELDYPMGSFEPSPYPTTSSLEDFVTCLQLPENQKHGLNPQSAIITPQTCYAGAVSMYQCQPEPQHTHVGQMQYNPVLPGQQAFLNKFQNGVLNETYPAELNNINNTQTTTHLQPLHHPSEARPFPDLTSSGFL
Protocol: Luciferase Reporter Gene Assay
In this test example, a luciferase reporter gene assay was performed to assay the agonistic activity effect of the compounds of the present disclosure on AHR protein.
• Human hepatoma cells HepG2-Lucia expressing AHR and luciferase were purchased from InvivoGen with the catalog number of hpgl-ahr;
• 1. HepG2-Lucia AHR cells were cultured in an EMEM medium containing 10% inactivated fetal bovine serum, 1×NEAA, penicillin-streptomycin, and 100 μg/mL Zeocin (bleomycin). The culture temperature was 37° C. and the concentration of carbon dioxide was 5%. • 2. After the cells were grown to about 80% confluency, the cells were digested, centrifuged, resuspended, and counted. The cells were seeded into a 384-well plate at 40 μL/well. • 3. Different concentrations of the test compounds were added by using ECHO at 40 nL/well. • 4. The 384-well plate to which the compounds were added was incubated in the incubator for 24 h. • 5. The supernatant was collected, a QUANTI-Luc Gold detection reagent was added, and the luminescence signal values were read by using the multifunctional microplate reader.

Compound	Liquid chromatography content (220 nM, %) ([1]; batch 1, 0 h) [%]	Liquid chromatography content (220 nM, %) ([1]; batch 1, 8 h) [%]	Liquid chromatography content (220 nM, %) ([1]; batch 1, 24 h) [%]	Liquid chromatography content (220 nM, %) ([1]; batch 1, 72 h) [%]	Liquid chromatography content (220 nM, %) ([1]; batch 2, 0 h) [%]	Liquid chromatography content (220 nM, %) ([1]; batch 2, 8 h) [%]	Liquid chromatography content (220 nM, %) ([1]; batch 2, 24 h) [%]	Liquid chromatography content (220 nM, %) ([1]; batch 2, 72 h) [%]	EC50 (AHR protein) [nM]
CC(C)c1c(O)cc(/C=C/c2ccccc2)cc1O [Benvitimod, reference compound]	99.87	85.14	74.20	69.53					
CC(C)c1c(O)cc(/C=C/c2cccc(F)n2)cc1O [Comparative Example 1, reference compound]					96.99	85.98	82.13	72.30	
CC(C)c1c(O)cc(/C=C/c2ccccc2)c(Cl)c1O [Compound 1, (E)-4-Chloro-2-isopropyl-5-styrylbenzene-1,3-diol]									238
Cc1c(/C=C/c2ccccc2)cc(O)c(C(C)C)c1O [Compound 2, (E)-2-Isopropyl-4-methyl-5-styrylbenzene-1,3-diol]									177
CC(C)c1c(O)cc(/C=C/c2ccccc2)c(F)c1O [Compound 3, (E)-4-Fluoro-2-isopropyl-5-styrylbenzene-1,3-diol]	97.25	97.33	96.06	97.71					57
CC(C)c1c(O)cc(/C=C/c2ccccc2)c(Br)c1O [Compound 4, (E)-4-Bromo-2-isopropyl-5-styrylbenzene-1,3-diol]									219
CC(C)c1c(O)cc(/C=C/c2ccc(F)cc2)c(F)c1O [Compound 5, (E)-4-Fluoro-5-(4-fluorostyryl)-2-isopropylbenzene-1,3-diol]					99.30	98.80	99.22	99.06	6
CC(C)c1c(O)cc(/C=C/c2ccccc2F)c(F)c1O [Compound 6, (E)-4-Fluoro-5-(2-fluorostyryl)-2-isopropylbenzene-1,3-diol]					98.31	98.37	98.27	98.68	10
CC(C)c1c(O)cc(/C=C/c2ncccc2F)c(F)c1O [Compound 7, (E)-4-Fluoro-5-[2-(3-fluoropyridin-2-yl)vinyl]-2-isopropylbenzene-1,3-diol]					98.70	95.84	91.56	89.57	30
CC(C)c1c(O)cc(/C=C/c2ncccc2Cl)c(F)c1O [Compound 8, (E)-5-[2-(3-Chloropyridin-2-yl)vinyl]-4-fluoro-2-isopropylbenzene-1,3-diol]									13
CC(C)c1c(O)cc(/C=C/c2ccc(F)cn2)c(F)c1O [Compound 9, (E)-4-Fluoro-5-[2-(5-fluoropyridin-2-yl)vinyl]-2-isopropylbenzene-1,3-diol]					99.46	98.65	97.46	92.06	20
CC(C)c1c(O)cc(/C=C/c2cccc(F)n2)c(F)c1O [Compound 14, (E)-4-Fluoro-5-[2-(6-fluoropyridin-2-yl)vinyl]-2-isopropylbenzene-1,3-diol]					88.32	87.83	88.31	84.37	27
CC(C)c1c(O)cc(/C=C/c2ccncc2)c(F)c1O [Compound 18, (E)-4-Fluoro-2-isopropyl-5-[2-(pyridin-4-yl)vinyl]benzene-1,3-diol]									66
(E)-4-Fluoro-2-isopropyl-5-[2-(pyridin-2-yl)vinyl]benzene-1,3-diol [Compound 16]					97.58	97.52	96.88	96.81	
